The values that follow come from patent US11293024B2, “Antisense antibacterial compounds and methods” (priority 2014, dated 2022).

{(RXR)4XB} = cell-penetrating peptide (RXR)4XB; {Ac} = acetyl (COCH3) cap

Assay type in all cases: cell-based, Pseudomonas aeruginosa
The subject of series [1] is P. aeruginosa strains that are multidrug resistant (strain T63547). Briefly: MIC in multidrug resistant P. aeruginosa strains. The note with it: strain T63547 (CF sputum; resistant to extended-spectrum penicillins, cephalosporins, quinolones, carbapenems). Here is the method:
In addition, MIC values of 8 μM or less in P. aeruginosa strains that are multidrug resistant have been achieved. For example, strain T63547 was isolated from the sputum of a CF patient and was resistant to extended-spectrum penicillins, cephalosporins, quinolones and carbapenems. The RpsJ PPMOs and the RpmB PPMO had MIC values of 4 μM. PPMOs also retained activity in mucoid strains of P. aeruginosa (such as strain H27925; CF sputum sample). This is a critically important finding, as mucoid Pseudomonas poses significant treatment challenges.

For series [2], the system named is P. aeruginosa PAO1 biofilm. Briefly: Biofilm prevention in MBEC plate (crystal violet). The note with it: 5 μM PPMO, 2 μg/mL PMBN, MHII, 20 hours; one-way ANOVA p<0.0001. The protocol:
P. aeruginosa PAO1 (5×10^5 cfu/mL) was grown in MHII media in an MBEC plate for 20 hours either alone or in the presence of 5 μM of the indicated PPMOs, PMBN alone, (RXR)4, or a scrambled PPMO. All conditions contained 2 μg/mL of PMBN unless indicated otherwise. Pegs were processed for crystal violet or visualized by microscopy at 20 hours. […] FIGS. 6B-6D: Spinning Disk confocal microscopy images of 20 hour biofilm treated with (FIG. 6B) No PPMO, (FIG. 6C) 5 μM Scr PPMO #41, (FIG. 6D) 5 μM RpsJ PPMO #14. PAO1 GFP is shown in green and biofilm is shown in red. The biofilm is stained with 200 μg/mL of Concanavalin A, Alexafluor 647 conjugate.
Pseudomonas aeruginosa Biofilm Prevention in MBEC Plate Protocol
• 1. 10 mL of MH is inoculated with a single colony and incubated at 37° C. and ˜250 rpm for about 5 hours. • 2. The sample is centrifuged for 10 minutes at ˜4000 rpm at 4° C., the supernatant is decanted and the pellet resuspended in 10 mL of 150 mM NaCl or PBS. This step is repeated to wash the pellet 3 times. • 3. The sample is resuspended in 10 mL 150 mM NaCl or PBS. • 4. The OD600 of the sample is taken and cfu/mL is calculated. (OD600 usually between 0.65-0.80). • 5. A Bacterial Working Solution (BWS) is made by inoculating 10 mL of MH to 5×10^5 cfu/mL final concentration. • 6. 2 μL/mL of 1 mg/mL stock PMBN is added to the BWS and vortexed 3 times. • 7. 1 mL of BWS is pipetted into each separate Eppendorf tube for each condition that is tested. • 8. An appropriate amount of PPMO is added to each Eppendorf tube and vortexed 3 times. • 9. Outside wells are filled with fresh MH, NaCl, or PBS to keep the outer pegs from drying out. • 10. One column of the MBEC plate is filled with 150 μL per well from each Eppendorf tube (one condition per column). • 11. Pegs are placed into the MBEC plate and the edges covered with a breathable membrane. • 12. The MBEC plate is incubated for 18-20 hours at 37° C. and 110 rpm. Day 2:
1. […] The final OD570 of the 10× dilution of solution should be approximately 0.500 absorbance. […]
2. OD reading: The OD570 for the 96-well plate from step 1e is determined. […]

The subject of series [3] is P. aeruginosa PAO1. Description: MIC of Ampicillin as a function of AmpR PPMO and PMBN concentration. From the text: An AmpR PPMO combined with PMBN restores activity of Ampicillin in P. aeruginosa PAO1.
The ability to use PPMOs as adjunctive therapeutics to restore antibiotic sensitivity to existing drugs could be an intriguing way to explore treatment of multidrug-resistant pathogens that are increasingly being found in chronically infected patients. Frequently encountered resistance genes (β-lactamases, efflux pumps) were targeted. […] An exemplary PPMO, as set forth in Table 5 and illustrated below, was designed to target AmpR in P. aeruginosa, a global transcriptional regulator that regulates β-lactamases such as AmpC. […] Testing the AmpR PPMO in animal models would be a reasonable alternative approach to thinking of antisense as adjuvant therapy with traditional antibiotics.

Series [4] relates to panel of P. aeruginosa clinical isolates. Description: MIC of PPMOs with sub-inhibitory concentrations of Colistin (polymyxin E). The note with it: Colistin alone at either 1 or 0.5 μg/ml (depending on the strain). Here is the method:
MICs are indicated by color and numerical value as in FIG. 1. All MICs were performed in the presence of 1 μg/mL of Colistin unless otherwise noted (*Strains with an asterisk were tested with 0.5 μg/mL of Colistin).
The overnight culture is plated to determine CFU/ml of starting inoculum. From the overnight culture 4 μl is taken into 10 ml of fresh medium and mixed well to obtain a bacterial working suspension. From the 10 ml, 50 μl is taken into 450 μl of saline. Serial dilutions of 10^−2, 10^−3 and 10^−4 are plated on BA. If Polymyxin B Nonapeptide (PMBN) is to be added, 4 μl/ml of PMBN is added from a stock of 1 mg/ml (in water) to the bacterial suspension for a 4 μg/ml final PMBN concentration.
For every PPMO to be tested, the following is done: 6.8 μl of a 1 mM PPMO stock is added to 413.2 μl of bacterial working suspension and vortexed. 200 μl is placed in the first row (A) of a 96-well plate in duplicate. 100 μl of bacterial working suspension is added to rows B thru F. Row A is mixed well by pipetting 10 times. Then 100 μl from each well of row A is added to the 100 μl of bacterial working suspension in each well of row B and mixed well 10 times. Serial dilutions are continued in the same manner through to row F. Finally, 100 μl in the last row is removed and discarded. […]
The plate is read in a plate reader to measure OD600. […]

For “PPMO #5: RpmB PMO CTCTAGACATG, 5′ TEG, 3′ (RXR)4XB CPP”, the MIC in series [1] was 4 µM. In addition, the “prevention of biofilm (crystal violet)” value in series [2] is “statistically significant prevention of biofilm”.

Turning to “PPMO #28: ampR PMO GTCGAACCAAT, 5′ (RXR)4XB CPP, 3′ COCH3 (all phosphorodiamidate morpholino (PMO), 5' {(RXR)4XB}, 3' {Ac})”, the “MIC of Ampicillin” value in series [3] (in the presence of 32 μM AmpR PPMO and 4 μg/ml PMBN) is 4 µg/mL.

Regarding “PPMO #2: LpxC PMO GTTGTTTGATC, 5′ TEG, 3′ (RXR)4XB CPP”, the “prevention of biofilm (crystal violet)” value in series [2] is “statistically significant prevention of biofilm”.

Consider `CC1(C)S[C@@H]2[C@H](NC(=O)[C@H](N)c3ccccc3)C(=O)N2[C@H]1C(=O)O` [Ampicillin, ampicillin, reference compound], for which the MIC in series [3] (Pseudomonas aeruginosa, PAO1, in the absence of PPMO) is 512 µg/mL.

Consider polymyxin E [Colistin], for which, in series [4], the “growth inhibition by Colistin alone” value is recorded as “did not inhibit growth”.
